From publication PMC8344235, “α-Amylase and dipeptidyl peptidase-4 (DPP-4) inhibitory effects of Melicope latifolia bark extracts and identification of bioactive constituents using in vitro and in silico approaches” (Pharmaceutical Biology, 2021)
pIC50: −log10 of the molar value. “And” between values parts separate entries of the source, which are not always exact repeats. Equal values may be shown once. Read-outs that look alike come from different tables or passages of the source. Marks after values point to notes of the source that are not given here.

Experiments:
[1] = DPPH free radical scavenging assay; conditions: for pIC50 / DPPH IC50: mean ± SD of triplicates; for DPPH IC50: ND = IC50 not detected at highest tested concentration (1 mg/mL)
Description: Free radical scavenging ability of M. latifolia fractions and compounds were determined using stable free radical 2,2-diphenyl-1-picrylhydrazyl (DPPH) following the method described by Tan et al. ([2019]). The extracts (170 μL) at varying concentrations ([…]) were mixed with 30 μL of methanolic DPPH solution (300 μM) in a 96-well microplate. The mixtures were then incubated at room temperature for 30 min in the dark, followed by an absorbance measurement at 517 nm. For the negative control well, the extract was replaced by methanol. Ascorbic acid, α-tocopherol, and BHT were used as standards.

[2] = β-Carotene bleaching assay; conditions: samples 1 mg/mL, 50 °C, 2 h
Description: The antioxidant capacity of M. latifolia fractions and isolated constituents by β-carotene bleaching was performed according to a method described by Kassim et al. ([2019]). In brief, 210 µL of β-carotene solution (1 mg/mL in chloroform) was added to Tween 20 (42 µL) and linoleic acid (5 µL) in a round bottom flask. The chloroform was removed by rotary evaporation prior to the addition of […] of distilled water and shaken to form an emulsion. The emulsion (200 µL) was then transferred into each well of a 96-well microplate that contains 50 µL of samples (1 mg/mL). The mixture was incubated at 50 °C in the dark for 2 h, and its absorbance was measured at 470 nm at the initial time (t = 0) and every subsequent 30 min for 2 h (t = 2). Ascorbic acid, α-tocopherol, and BHT were used as positive controls. Methanol was used to replace the test samples as a negative control. The antioxidant activity (AA) was calculated according to the formula (5): (5) AA% = 1 − [(At=0 – At=2)/(Ac=0 – Ac=2)] × 100 whereby At=0 and At=2 are the absorbance of the samples measured at 0 and 2 h, respectively; Ac=0 and Ac=2 are the absorbance of negative control measured at 0 and 2 h, respectively.

[3] = target: T1, human-recombinant DPP-4 enzyme (Homo sapiens, UniProt P27487); experiment: DPP-4 inhibitory assay (fluorescence screening kit); type: biochemical; conditions: for pIC50: highest tested concentration, read-out: DPP-4 IC50 not detected at the highest concentration; for IC50: mean ± SD of triplicates, read-out: DPP-4 IC50 (converted)
T1 construct: purchased Cayman Chemical (Ann Arbor, MI)
T1 sequence (P27487 whole entry): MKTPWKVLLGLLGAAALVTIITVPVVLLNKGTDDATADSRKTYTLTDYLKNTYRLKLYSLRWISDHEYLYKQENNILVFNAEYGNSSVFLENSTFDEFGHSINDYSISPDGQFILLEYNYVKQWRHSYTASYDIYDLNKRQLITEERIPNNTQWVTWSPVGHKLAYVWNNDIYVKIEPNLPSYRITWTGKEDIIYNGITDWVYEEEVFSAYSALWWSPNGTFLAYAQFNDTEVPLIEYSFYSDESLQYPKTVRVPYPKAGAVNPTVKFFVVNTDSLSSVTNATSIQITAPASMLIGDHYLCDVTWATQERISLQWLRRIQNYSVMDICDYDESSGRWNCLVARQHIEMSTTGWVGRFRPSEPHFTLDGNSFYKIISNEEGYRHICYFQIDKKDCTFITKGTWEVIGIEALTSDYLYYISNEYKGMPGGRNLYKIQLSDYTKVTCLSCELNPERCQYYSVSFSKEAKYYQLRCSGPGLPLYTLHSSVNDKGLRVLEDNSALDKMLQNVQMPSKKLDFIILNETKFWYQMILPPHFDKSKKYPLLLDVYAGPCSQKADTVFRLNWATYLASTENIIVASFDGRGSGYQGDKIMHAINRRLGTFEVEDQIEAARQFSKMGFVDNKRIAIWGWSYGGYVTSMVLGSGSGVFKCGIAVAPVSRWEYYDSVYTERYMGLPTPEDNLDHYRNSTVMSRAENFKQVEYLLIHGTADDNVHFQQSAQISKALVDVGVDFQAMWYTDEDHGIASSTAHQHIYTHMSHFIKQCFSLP
Description: DPP-4 inhibitor screening kit (Cayman Chemical, Ann Arbor, MI) was used to evaluate the DPP-4 inhibitory activity of the test samples based on a fluorescence assay method. Briefly, samples (10 μL) with different concentrations in DMSO were each pipetted into a 96-well plate followed by the addition of diluted assay buffer (30 μL), diluted human-recombinant DPP-4 enzyme solution (10 μL), and diluted fluorogenic substrate, Gly-Pro-aminomethylcoumarin (AMC) (50 μL). […] The 96-well plate was shaken and incubated for 30 min at 37 °C.

SMILES | pIC50 [1] | DPPH IC50 [1] [µg/mL] | β-Carotene bleaching activity AA (%) [2] | pIC50 [3] | IC50 ([3]; ND = IC50 not detected at highest tested concentration (1 mg/mL)) [µM] | IC50 [3] [µM] | DPPH IC50 not detected at the highest concentration ([1]; highest tested concentration) [µg/mL]
Cc1cc(C(C)(C)C)c(O)c(C(C)(C)C)c1 [BHT, butylated hydroxytoluene] | 4.35 | 9.90 ± 0.03 | 76.42% and 76.42 ± 0.02^c % | – | – | – | –
CC[C@H](CC[C@@H](C)[C@H]1CC[C@H]2[C@@H]3CC=C4C[C@@H](O)CC[C@]4(C)[C@H]3CC[C@]12C)C(C)C [Compound 1, β-sitosterol] | – | – | – | < 2.62 | – | – | –
O=C1O[C@H]([C@@H](O)CO)C(O)=C1O [Ascorbic acid] | 4.07 | 15.00 ± 0.01 | 35.23 ± 0.02^g % | – | – | – | –
COc1c(OC)c2c(OC)c3ccoc3cc2oc1=O [Compound 2, halfordin] | 2.19 | 1776.01 ± 0.16 | 88.48% and 88.48 ± 0.02^b % | < 2.44 | – | – | –
Cc1c(C)c2c(c(C)c1O)CC[C@@](C)(CCC[C@H](C)CCC[C@H](C)CCCC(C)C)O2 [α-Tocopherol] | 4.36 | 18.79 ± 0.01 | 98.01 ± 0.02^a % | – | – | – | –
O=C(O)c1ccc(O)c(O)c1 [Compound 4, protocatechuic acid] | – | – | – | < 2.19 | – | – | –
COC(=O)/C=C/c1ccc(O)cc1 [Compound 3, methyl p-coumarate] | – | – | 1.08 ± 0.02^g % | – | 911 | 911 | > 1000
